Laboratory results as given in patent US10752609B2, “GSK-3 inhibitors” (priority 2016, dated 2020).
Like-named read-outs stand apart in the source and are kept apart here.

Key:
[1] = target: GSK3β (Homo sapiens, UniProt P49841); experiment: GSK3β kinase assay (Caliper LabChip3000 mobility shift, fluoresceinated peptide substrate); format: biochemical
[2] = tested on: pTau; experiment: pTau assay (no method described); format: cell-based
[3] = target: GSK3α (Homo sapiens, UniProt P49840); experiment: GSK3α kinase assay (Caliper LabChip3000 mobility shift, fluoresceinated peptide substrate)
[4] = 250 pM enzyme, 20 uM ATP, 1.5 uM peptide, 20 hours room temperature, first value of cell GSK3β/GSK3α, read-out: GSK3β (nM), IC50

Chain of GSK3β (P49841 whole entry, species assumed): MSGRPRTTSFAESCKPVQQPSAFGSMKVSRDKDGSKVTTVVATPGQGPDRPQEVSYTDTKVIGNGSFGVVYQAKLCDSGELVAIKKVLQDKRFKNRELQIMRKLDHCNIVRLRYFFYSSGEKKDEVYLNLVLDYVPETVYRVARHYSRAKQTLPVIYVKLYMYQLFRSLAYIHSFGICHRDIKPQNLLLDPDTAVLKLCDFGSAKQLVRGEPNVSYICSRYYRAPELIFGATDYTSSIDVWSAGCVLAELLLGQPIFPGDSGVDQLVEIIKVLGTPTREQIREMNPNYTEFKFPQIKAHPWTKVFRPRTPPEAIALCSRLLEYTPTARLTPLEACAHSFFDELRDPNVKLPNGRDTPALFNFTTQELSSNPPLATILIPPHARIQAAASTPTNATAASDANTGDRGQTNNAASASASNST
Chain of GSK3α (P49840 whole entry, species assumed): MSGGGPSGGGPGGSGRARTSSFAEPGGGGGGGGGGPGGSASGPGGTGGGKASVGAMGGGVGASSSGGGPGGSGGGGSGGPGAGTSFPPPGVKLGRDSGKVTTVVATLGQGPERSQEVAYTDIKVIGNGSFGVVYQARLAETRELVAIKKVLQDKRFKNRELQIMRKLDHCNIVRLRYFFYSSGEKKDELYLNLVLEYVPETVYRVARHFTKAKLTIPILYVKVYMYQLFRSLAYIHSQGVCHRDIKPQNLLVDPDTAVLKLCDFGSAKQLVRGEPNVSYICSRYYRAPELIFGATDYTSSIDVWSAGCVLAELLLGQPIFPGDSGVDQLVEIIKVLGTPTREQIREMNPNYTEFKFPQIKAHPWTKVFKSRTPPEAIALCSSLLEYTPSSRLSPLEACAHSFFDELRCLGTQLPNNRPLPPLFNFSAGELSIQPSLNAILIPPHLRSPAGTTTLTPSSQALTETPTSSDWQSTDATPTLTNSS

| Compound | IC50 [1, 4] | IC50 [2] | IC50 [3] | IC50 [1] |
| --- | --- | --- | --- | --- |
| O=C(Nc1cnccc1-c1ccccc1)c1ccnc(Nc2ccncc2)n1 [Example 35, N-(4-Phenylpyridin-3-yl)-2-(pyridin-4-ylamino)pyrimidine-4-carboxamide] | 1.1 nM | 30 nM | 0.63 nM |  |
| O=C(Nc1cnccc1OCC(F)(F)F)c1ccnc(Nc2ccccn2)n1 [Example 114, 2-(Pyridin-2-ylamino)-N-(4-(2,2,2-trifluoroethoxy)pyridin-3-yl)pyrimidine-4-carboxamide] |  | 210 nM | 14 nM | 20 nM |
| CCn1nccc1Nc1nccc(C(=O)Nc2cnccc2-c2ccccc2)n1 [Example 90, 2-((1-Ethyl-1H-pyrazol-5-yl)amino)-N-(4-phenylpyridin-3-yl)pyrimidine-4-carboxamide] |  | 120 nM | 2.2 nM | 3 nM |
| Cc1ccc(Nc2nccc(C(=O)Nc3cncc(-c4ccccc4F)c3)n2)cn1 [Example 103, N-(5-(2-Fluorophenyl)pyridin-3-yl)-2-((6-methylpyridin-3-yl)amino)pyrimidine-4-carboxamide] | 3.1 nM | 510 nM | 1.3 nM |  |
| O=C(Nc1cnccc1OCC(F)(F)F)c1ccnc(Nc2ccc(C(F)(F)F)cc2)n1 [Example 58, N-(4-(2,2,2-Trifluoroethoxy)pyridin-3-yl)-2-((4-(trifluoromethyl)phenyl)amino)pyrimidine-4-carboxamide] | 0.3 nM | 10 nM | 0.18 nM |  |
| O=C(Nc1cnc(F)cc1OCC(F)(F)F)c1ccnc(Nc2ccc(C(F)(F)F)cc2)n1 [Example 109, N-(6-Fluoro-4-(2,2,2-trifluoroethoxy)pyridin-3-yl)-2-((4-(trifluoromethyl)phenyl)amino) pyrimidine-4-carboxamide] | 0.88 nM | 44 nM | 0.43 nM |  |
| O=C(Nc1cncnc1)c1ccnc(Nc2cccc(-c3ccc(Cl)cc3)c2)n1 [Example 193, 2-((4′-Chloro-[1,1′-biphenyl]-3-yl)amino)-N-(pyrimidin-5-yl)pyrimidine-4-carboxamide] | 3.4 nM | 620 nM | 1.8 nM |  |
| O=C(Nc1cnccc1-c1ccc(F)cc1)c1ccnc(Nc2ccc(F)cc2)n1 [Example 44, 2-((4-Fluorophenyl)amino)-N-(4-(4-fluorophenyl)pyridin-3-yl)pyrimidine-4-carboxamide] | 0.26 nM | 34 nM | 0.46 nM |  |
| CC1(CNc2nccc(C(=O)Nc3cncnc3OCC(F)(F)F)n2)COC1 [Example 191, 2-(((3-Methyloxetan-3-yl)methyl)amino)-N-(4-(2,2,2-trifluoroethoxy)pyrimidin-5-yl)pyrimidine-4-carboxamide] |  | 240 nM | 4.3 nM | 3.3 nM |
| O=C(Nc1cnccc1-c1ccc(F)cc1F)c1ccnc(Nc2cccnn2)n1 [Example 164, N-(4-(2,4-Difluorophenyl)pyridin-3-yl)-2-(pyridazin-3-ylamino)pyrimidine-4-carboxamide] | 1500 nM | 10000 nM | 780 nM |  |
| O=C(Nc1cnccc1OCC(F)(F)F)c1ccnc(Nc2ccc(OC(F)(F)F)cc2)n1 [Example 59, N-(4-(2,2,2-Trifluoroethoxy)pyridin-3-yl)-2-((4-(trifluoromethoxy)phenyl)amino)pyrimidine-4-carboxamide] | 0.18 nM | 8.2 nM | 0.21 nM |  |
| O=C(Nc1cncnc1OCC(F)(F)F)c1ccnc(Nc2ccc(C(F)(F)F)cc2)n1 [Example 68, N-(4-(2,2,2-Trifluoroethoxy)pyrimidin-5-yl)-2-((4-(trifluoromethyl)phenyl)amino)pyrimidine-4-carboxamide] | 0.73 nM | 90 nM | 1.3 nM |  |
| COc1ccc(Nc2nccc(C(=O)Nc3cnccc3OCC(F)(F)F)n2)cc1F [Example 62, 2-((3-Fluoro-4-methoxyphenyl)amino)-N-(4-(2,2,2-trifluoroethoxy)pyridin-3-yl)pyrimidine-4-carboxamide] | 0.08 nM | 230 nM | 0.09 nM |  |
| O=C(Nc1cnccc1OCC(F)(F)F)c1ccnc(NCc2cccc(C(F)(F)F)c2)n1 [Example 139, N-(4-(2,2,2-Trifluoroethoxy)pyridin-3-yl)-2-((3-(trifluoromethyl)benzyl)amino)pyrimidine-4-carboxamide] | 6.3 nM | 570 nM | 5.4 nM |  |
| O=C(Nc1cnccc1OCC(F)(F)F)c1ccnc(Nc2ccc(F)cc2F)n1 [Example 113, 2-((2,4-Difluorophenyl)amino)-N-(4-(2,2,2-trifluoroethoxy)pyridin-3-yl)pyrimidine-4-carboxamide] | 5.3 nM | 300 nM | 4 nM |  |
| Cn1cnc(Nc2nccc(C(=O)Nc3cnccc3-c3ccccc3)n2)c1 [Example 102, 2-((1-Methyl-1H-imidazol-4-yl)amino)-N-(4-phenylpyridin-3-yl)pyrimidine-4-carboxamide] | 260 nM | 10000 nM | 170 nM |  |
| O=C(Nc1cnccc1OCC(F)(F)F)c1ccnc(NCc2cccc(F)c2)n1 [Example 140, 2-((3-Fluorobenzyl)amino)-N-(4-(2,2,2-trifluoroethoxy)pyridin-3-yl)pyrimidine-4-carboxamide] | 1.3 nM | 280 nM | 1.6 nM |  |
| COc1ccc(Nc2nccc(C(=O)Nc3cncnc3OCC(F)(F)F)n2)cc1 [Example 77, 2-((4-Methoxyphenyl)amino)-N-(4-(2,2,2-trifluoroethoxy)pyrimidin-5-yl)pyrimidine-4-carboxamide] | 0.79 nM | 100 nM | 0.47 nM |  |
| O=C(Nc1cnccc1-c1ccccc1)c1ccnc(NCC2CC2)n1 [Example 147, 2-((Cyclopropylmethyl)amino)-N-(4-phenylpyridin-3-yl)pyrimidine-4-carboxamide] | 0.14 nM | 20 nM | 0.14 nM |  |
| O=C(Nc1cnccc1CN1CCCC1)c1ccnc(Nc2ccc(OC(F)F)nc2)n1 [Example 81, 2-((6-(Difluoromethoxy)pyridin-3-yl)amino)-N-(4-(pyrrolidin-1-ylmethyl)pyridin-3-yl)pyrimidine-4-carboxamide] | 9.8 nM | 520 nM | 6.6 nM |  |
| O=C(Nc1cnccc1OCC(F)(F)F)c1ccnc(NCc2ccccc2F)n1 [Example 129, 2-((2-Fluorobenzyl)amino)-N-(4-(2,2,2-trifluoroethoxy)pyridin-3-yl)pyrimidine-4-carboxamide] | 1.5 nM | 180 nM | 1.8 nM |  |
| CN1CCC(Nc2nccc(C(=O)Nc3cnccc3-c3ccccc3F)n2)CC1 [Example 162, N-(4-(2-Fluorophenyl)pyridin-3-yl)-2-((1-methylpiperidin-4-yl)amino)pyrimidine-4-carboxamide] | 32 nM | 2200 nM | 39 nM |  |
| O=C(Nc1cnccc1OCC(F)(F)F)c1ccnc(Nc2ccc(C(F)(F)F)cn2)n1 [Example 111, N-(4-(2,2,2-Trifluoroethoxy)pyridin-3-yl)-2-((5-(trifluoromethyl)pyridin-2-yl)amino)pyrimidine-4-carboxamide] | 2.9 nM | 220 nM | 2.2 nM |  |
